Results taken from patent US5110976A, “Insecticidal composition comprising more than one active ingredient” (priority 1985, dated 1992).
Values after ≈ are worked out from the molar mass of the structure shown.

Assays:
Musca domestica [1] = assay: Filter paper disc contact test (Table 11); type: in vivo, house fly (Musca domestica)
Method: In Table 1 the activity of various stereoisomers of cypermethrin on the house fly (Musca domestica) is shown.
(§1) The active ingredient is dissolved in a 1:2 mixture of oil and acetone; filter paper discs (Whatman No. 1, diameter 9 cm) are impregnated with the solutions of the corresponding stereoisomers and enantiomer-pairs, respectively. The acetone is allowed to evaporate, whereupon the insects are exposed to filter papers discs placed in Petri-dishes. Three parallels are used on each dose and 15 insects are placed into each Petri-dish. The percental mortality is determined after 24 hours. The corrected percent mortality is calculated by means of the Abbot Formula.

Tribolium confusum [2] = assay: Contact test on Tribolium confusum (Table 12); type: in vivo; settings: Tribolium confusum, 24 h
Method: as §1
It appears from Table 12 that the increased activity shown in Example 41 is due to the synergistic effect of the trans-isomers to Tribolium confusum.

Tribolium confusum [3] = assay: Contact test, mixtures of Ia and Ib of various ratio (Table 13); type: in vivo, flour beetle (Tribolium confusum)
Method: as §1
In Table 13 the insecticidal effect of mixtures of enantiomer-pairs Ia and Ib of various ratio is shown on flour beetle (Tribolium confusum). The test method is that disclosed in Example 43.

Colorado potato beetle = assay: Topical test on Colorado potato beetle (Table 14); type: in vivo, Colorado potato beetle (Leptinotersa decemlineata), imago
Method: In Table 14 the activity on Colorado potato beetle is shown.
The test materials are dissolved in 2-ethoxyethanol (Cellosolve). One 0.3 μl drop of the solution is applied to the abdominal sterna of the imago. The treatment is carried out by using 2 parallels and 10 insects for each dose. […]

Acanthoscelides obtectus = assay: Comparative contact test (Table 15); type: in vivo, bean weevil (Acanthoscelides obtectus), imago; settings: Acanthoscelides obtectus, 24 h
Method: as §1
(§2) The comparative test of Ia, Ib and a 40:60 mixture of Ia:Ib is carried out on bean weevil (Acanthoscelides obtectus), flour-beetle, (Tribolium confusum), house fly (Musca domestica) and sheep maggot fly (Lucillia sericata). The test method described is Example 41.

tribolium confusum [4] = assay: Comparative contact test (Table 15); type: in vivo, flour-beetle (Tribolium confusum), imago; settings: 24 h
Method: as §1, §2

Musca domestica [5] = assay: Comparative contact test (Table 15); type: in vivo, house fly (Musca domestica), imago; settings: 24 h
Method: as §1, §2

Lucillia sericata = assay: Comparative contact test (Table 15); type: in vivo, sheep maggot fly (Lucillia sericata), imago; set-up: key: % mortality after 24 h, Abbott-corrected; settings: 1440 min
Method: as §1, §2

T. confusum = assay: Activity as function of time, toxic symptoms (Table 16); type: in vivo, flour beetle (T. confusum), imagos
Method: as §1
Activity of cypermethrin stereoisomer-pairs as function of time on flour beetle (T. Confusum).
Flour beetle (T. confusum) imagos are exposed in Petri-dishes according to the method described in Example 43. For each dose 3 parallels are used and 15 animals are applied for each parallel test. In each point of time the insects lying on their backs are counted and the percental results are expressed in Table 16.

Hyphantria cunea = assay: Topical test on fall webworm (Table 18); type: in vivo, fall wetworm (Hyphantria cunea), L7-L8 larvae; settings: for 24 hours' mortality: 1440 min
Method: The active ingredients are dissolved in 2-ethoxy-ethanol and the solutions are applied in the form of 0.2 μl droplets onto the back of fall wetworm (Hyphantria cunea) of L7 -L8 larvae stage. The treated worms are placed on strawberry leaves in Petri-dishes. The test is carried out by using […], 2 parallels and 10 insects for each dose. The killed worms are counted after 24 hours and the percental mortality rate is calculated.

Tetranychus urticae = assay: Potter Tower spray on mite-infested leaves (Table 19); type: in vivo, mites (Tetranychus urticae); settings: Tetranychus urticae, 24 h, mortality after 24 hours; read-out: approx. LD50
Method: Leaves already infested with mites (Tetranychus urticae) were sprayed under Potter Tower. Mortality after 24 hours on the treated leaves was compared with the control.

A. matricariae = assay: Direct contact test on pupae (Table 26); type: in vivo
Method: Mature pupae of A. matricariae on paprika leaves in Petri-dishes are exposed to a direct spray of the active ingredients. Two or three days before emergence paprika leaves with parasitized pupae are used. The leaves are laid on moistened filter paper in a plastic Petri-dish.
Application of treatment: See Example 57.
The pieces of leaf are transferred after treatment to clean Petri-dish bottoms. The trays are stored in a climatic chamber at 20° C. temperature, 70% relative humidity and a light-dark cycle of 16-8 h. Surviving pupae hatch after 2-3 days. The numbers of hatched and dead pupae are counted.

In the case of `CC1(C)C(C=C(Cl)Cl)C1C(=O)OC(C#N)c1cccc(Oc2ccccc2)c1` (centres unmarked) [Ia:Ib = 4:6], the mortality at 40 µg/disc (Musca domestica [1]; Musca domestica, 24 h, 0.04 mg/disc) is reported as 41%, the mortality at 110 µg/disc (Musca domestica [1]; Musca domestica, 24 h, 0.11 mg/disc) is reported as 81% and the mortality at 330 µg/disc (Musca domestica [1]; Musca domestica, 24 h, 0.33 mg/disc) is reported as 100%. The mortality at 1000 µg/disc (Musca domestica [1]; Musca domestica, 24 h, 1.00 mg/disc) was 100%, the mortality at 3000 µg/disc (Musca domestica [1]; Musca domestica, 24 h, 3.00 mg/disc) was 100% and the comparative activity (Musca domestica [1]; mixture versus Ia) was “corresponds to that of the pure isomer Ia”. It also gave a mortality at 110 µg/disc (Tribolium confusum [2]; 0.11 mg/disc) of 61%, a mortality at 330 µg/disc (Tribolium confusum [2]; 0.33 mg/disc) of 89% and a mortality at 1000 µg/disc (Tribolium confusum [2]; 1.00 mg/disc) of 100%. The mortality at 3000 µg/disc (Tribolium confusum [2]; 3.00 mg/disc) was 100%, the “24 hours' mortality %” value (Tribolium confusum [3]; 0.02 mg/disc, 1440 min) was 14% and the “24 hours' mortality %” value (Tribolium confusum [3]; 0.06 mg/disc, 1440 min) was 53%. For the same molecule, the “24 hours' mortality %” value (Tribolium confusum [3]; 0.25 mg/disc) was 100%, the “24 hours' mortality %” value (Tribolium confusum [3]; 1.00 mg/disc) was 100% and the “24 hours' mortality %” value (Colorado potato beetle; 0.05 μg/beetle) was 45%. For the same molecule, the “24 hours' mortality %” value (Colorado potato beetle; 0.10 μg/beetle) was 60%, the “24 hours' mortality %” value (Colorado potato beetle; 0.20 μg/beetle) was 70% and the mortality at 0.4 µg/beetle (Colorado potato beetle; Leptinotarsa decemlineata, topical, read-out: 24 hours' mortality %, 0.40 μg/beetle) was 80%. For the same molecule, the mortality at 20 µg/disc (Acanthoscelides obtectus; 0.02 mg/disc) was 30%, the mortality at 70 µg/disc (Acanthoscelides obtectus; 0.07 mg/disc) was 55% and the mortality at 220 µg/disc (Acanthoscelides obtectus; 0.22 mg/disc) was 90%. For the same molecule, the mortality at 670 µg/disc (Acanthoscelides obtectus; 0.67 mg/disc) was 100%, the mortality at 2000 µg/disc (Acanthoscelides obtectus; 2.0 mg/disc) was 100% and the mortality at 6000 µg/disc (Acanthoscelides obtectus; 6.0 mg/disc) was 100%. The mortality at 20 µg/disc (tribolium confusum [4]; 0.02 mg/disc) was 16%, the mortality at 70 µg/disc (tribolium confusum [4]; 0.07 mg/disc) was 80% and the mortality at 220 µg/disc (tribolium confusum [4]; 0.22 mg/disc) was 100%. The mortality at 670 µg/disc (tribolium confusum [4]; 0.67 mg/disc) was 100%, the mortality at 2000 µg/disc (tribolium confusum [4]; 2.0 mg/disc) was 100% and the mortality at 6000 µg/disc (tribolium confusum [4]; 6.0 mg/disc) was 100%. It also gave a mortality at 20 µg/disc (Musca domestica [5]; 0.02 mg/disc) of 25%, a mortality at 70 µg/disc (Musca domestica [5]; 0.07 mg/disc) of 45% and a mortality at 220 µg/disc (Musca domestica [5]; 0.22 mg/disc) of 85%. The mortality at 670 µg/disc (Musca domestica [5]; 0.67 mg/disc) was 100%, the mortality at 2000 µg/disc (Musca domestica [5]; 2.0 mg/disc) was 100% and the mortality at 6000 µg/disc (Musca domestica [5]; 6.0 mg/disc) was 100%. It also gave a mortality (Lucillia sericata; 0.02 mg/disc) of 18, a mortality (Lucillia sericata; 0.07 mg/disc) of 50 and a mortality (Lucillia sericata; 0.22 mg/disc) of 60. The mortality (Lucillia sericata; 0.67 mg/disc) was 75, the mortality (Lucillia sericata; 2.0 mg/disc) was 100 and the mortality (Lucillia sericata; 6.0 mg/disc) was 100. For the same molecule, the “% of insects showing toxic symptoms” value (T. confusum; 30 minutes) was 0%, the “% of insects showing toxic symptoms” value (T. confusum; 30 minutes, 0.33 mg/disc) was 0% and the “% of insects showing toxic symptoms” value (T. confusum; 30 minutes, 1.00 mg/disc) was 50%. For the same molecule, the “% of insects showing toxic symptoms” value (T. confusum; 30 minutes, 3.00 mg/disc) was 55%, the “% of insects showing toxic symptoms” value (T. confusum; 60 minutes) was 15% and the “% of insects showing toxic symptoms” value (T. confusum; 60 minutes, 0.33 mg/disc) was 85%. For the same molecule, the “% of insects showing toxic symptoms” value (T. confusum; 60 minutes, 1.00 mg/disc) was 85%, the “% of insects showing toxic symptoms” value (T. confusum; 60 minutes, 3.00 mg/disc) was 100% and the “% of insects showing toxic symptoms” value (T. confusum; 120 minutes) was 30%. The “% of insects showing toxic symptoms” value (T. confusum; 120 minutes, 0.33 mg/disc) was 100%, the “% of insects showing toxic symptoms” value (T. confusum; 120 minutes, 1.00 mg/disc) was 100% and the “% of insects showing toxic symptoms” value (T. confusum; 120 minutes, 3.00 mg/disc) was 100%. For the same molecule, the “% of insects showing toxic symptoms” value (T. confusum; 180 minutes) was 55%, the “% of insects showing toxic symptoms” value (T. confusum; 180 minutes, 0.33 mg/disc) was 100% and the “% of insects showing toxic symptoms” value (T. confusum; 180 minutes, 1.00 mg/disc) was 100%. The “% of insects showing toxic symptoms” value (T. confusum; 180 minutes, 3.00 mg/disc) was 100%, the “24 hours' mortality” value (Hyphantria cunea; 0.023 (μg/disc)) was 40% and the “24 hours' mortality” value (Hyphantria cunea; 0.047 (μg/disc)) was 50%. For the same molecule, the “24 hours' mortality” value (Hyphantria cunea; 0.094 (μg/disc)) was 55%, the mortality at 0.188 µg/disc (Hyphantria cunea; Hyphantria cunea, topical, 24 h, 0.188 (μg/disc)) was 65% and the mortality at 0.375 µg/disc (Hyphantria cunea; Hyphantria cunea, topical, 24 h, 0.375 (μg/disc)) was 75%. It also gave an LC50 (Tetranychus urticae) of about 0.06 µg/mL (≈ 0.144 µM), a Mortality % (A. matricariae; 1 ppm) of 0% and a Mortality % (A. matricariae; 5 ppm) of 0%. The Mortality % (A. matricariae; 10 ppm) was 0% and the Mortality % (A. matricariae; 33 ppm) was 14.3%.
